Columns and labels:
[1] = Solubility (saturation concentration) of MAP/swellable polymer systems; format: physicochemical; details: pH 5.5 phosphate buffer, 37° C.
Protocol: The flasks were placed in a shaking thermostated apparatus and aliquots of sample solutions were taken by filtering through a Millipore membrane. The concentration of MAP in the filtered aliquot was determined both by spectrophotometry (SP8-100, Pye Unicam), after dilution with methanol, and by HPLC (column: Spherisorb S30DS2, Phase Sep.; mobile phase: acetonitrile/water 70/30 v/v; flow rate: 1 ml/min; U.V. detection, λ=242 nm), after dilution with acetonitrile.

[2] = Differential Scanning Calorimetry of MAP/swellable polymer systems; format: physicochemical; details: DSC; for % Residual of Original Heat of Fusion: relative to pure crystalline MAP
Source text: Alternatively, the grinding of the MAP-swellable polymer mixture can be stopped at any time the original crystalline form of MAP has been transformed into another, more energetic form.

Compound | Solubility ([1]; 5 min) | Solubility ([1]; 15 min) | Solubility ([1]; 1 hr) | Solubility ([1]; 6 hrs) | Heat of Fusion [2] | Melting Point [2] | Melting Point ([2]; listed as pure MAP) | % Residual of Original Heat of Fusion [2]
CC(=O)O[C@]1(C(C)=O)CC[C@H]2[C@@H]3C[C@H](C)C4=CC(=O)CC[C@]4(C)[C@H]3CC[C@@]21C [Pure crystalline MAP, 6α-methyl, 17α-hydroxy-progesterone acetate] | < 0.04 µg/mL | 0.32 µg/mL | 0.68 µg/mL | 1.00 µg/mL | 88.003 J/g | 205-206 °C | 205.6 °C | 100%
CC(=O)O[C@]1(C(C)=O)CC[C@H]2[C@@H]3C[C@H](C)C4=CC(=O)CC[C@]4(C)[C@H]3CC[C@@]21C [Micronized pure MAP, 6α-methyl, 17α-hydroxy-progesterone acetate] | – | – | – | – | 82.798 J/g | 205.3 °C | – | 94.1%

— patent publication US4632828A, “Pharmaceutical composition” (priority 1984, dated 1986)
